Experimental data as given in patent US9988379B2, “GPR40 receptor agonist, methods of preparing the same, and pharmaceutical compositions containing the same as an active agent” (LG CHEM, LTD., priority 2012, dated 2018).

Target: T1, human GPR40 (Homo sapiens, UniProt O14842)
T1 construct: expressed in transfected cells; host or cells: CHO-K1
Assay: Induction of Ca2+ (calcium flux assay) using human GPR40 expression cell line
Format: cell-based
Conditions: read-out: EC0.5
Experimental: Evaluation of the Test Compounds for Induction of Ca^2+ Using Human GPR40 Expression Cell Line
The cell line expressing human GPR40 was generated by transfection of the GPR40 expression vector into CHO-K1 cell, and used in the following calcium flux assay.
The cell line was cultured in cell-culture medium (F-12 (Invitrogen) supplemented with 10% (v/v) FBS (Fetal Bovine Serum; Invitrogen), 0.5 mg/ml Geneticin (Invitrogen) and 1% (v/v) Antibiotic-Antimycotic solution (Invitrogen)) under the condition of 5% CO2 and 37° C. For calcium flux assay, the cells were diluted with the cell-culture medium to a concentration of 5×10^5 cells/ml, and the diluted cell suspension was dispensed in amount of 100 μl/well to a 96-well transparent bottom black polystyrene cell culture plate (Corning) and then cultured for 24 hours. The following concentrations of test compounds were added to these cells, and then the changes in intracellular calcium concentration were measured by FlexStation II384 (Molecular Devices). The following solution was prepared before the measurement.
First, a buffer solution for assay was prepared for use in the manufacture of fluorescent dye solution. This buffer solution was prepared by adding 1M HEPES solution (Invitrogen) to HBSS (Hanks' Balanced Salt Solution) (Invitrogen) and then adding 1M NaOH (Nacalai Tesque) to adjust pH to 7.4. Then the fluorescent dye solution was prepared according to the manufacturer's instruction attached to Calcium 5 Assay Kit (Molecular Devices), and the final DMSO concentration was adjusted to 2%.
The fluorescent dye solution was added in an amount of 100 μl/well to supernatant of the cell culture plate cultured for 24 hours. The plate was cultured for 1 hour under the condition of 5% CO2 and 37° C. so that the fluorescent dye was inserted into the cell.
Test compounds (i.e., the compounds prepared in the Examples) dissolved in dimethyl sulfoxide (DMSO ACROS) were diluted 200-fold in the buffer solution for assay to prepare compound solutions corresponding to the respective concentrations. […] 50 μl of the prepared sample solutions was added to each well of 96-well polypropylene plates (NUNC), and thereby a compound plate was prepared. Finally, the compound plate and the cell culture plate cultured for 1 hour with the fluorescent dye were placed in FlexStation II384.
After the above pre-treatment, the change in the intracellular calcium concentration when each concentration of the test compound solutions was added at 50 μl was measured by FlexStation II^384.
Then, the relative activity values depending on the concentration of the compound were plotted using Prism 4 software (GraphPad) to calculate the EC0.5 value.

T1 sequence (O14842 whole entry): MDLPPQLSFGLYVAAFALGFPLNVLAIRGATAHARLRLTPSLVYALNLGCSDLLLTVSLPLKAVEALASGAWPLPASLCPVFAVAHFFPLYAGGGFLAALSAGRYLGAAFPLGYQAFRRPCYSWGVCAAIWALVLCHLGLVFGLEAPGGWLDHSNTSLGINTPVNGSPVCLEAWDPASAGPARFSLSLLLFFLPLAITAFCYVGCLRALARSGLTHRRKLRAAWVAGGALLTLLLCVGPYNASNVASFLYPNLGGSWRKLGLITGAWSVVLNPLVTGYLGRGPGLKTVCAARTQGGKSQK

| SMILES | EC50 [nM] |
| --- | --- |
| CC(C)n1ccc2ccc(CNc3ccc(CCC(=O)O)cc3)cc21 [Example 1] | 100 |
| O=C(O)CCc1ccc(NCc2ccc3ccn(Cc4ccccc4)c3c2)cc1 [Example 2, 3-{4-[(1-benzyl-1H-indol-6-ylmethyl)-amino]-phenyl}-propanoic acid] | 30 |
| O=C(O)CCc1ccc(NCc2ccc3ccn(-c4ccsc4)c3c2)cc1 [Example 3, 3-{4-[(1-thiophen-3-yl-1H-indol-6-ylmethyl)-amino]-phenyl}-propanoic acid] | 10 |
| O=C(O)CCc1ccc(NCc2ccc3ccn(CCc4ccccc4)c3c2)cc1 [Example 4, 3-{4-[(1-phenethyl-1H-indol-6-ylmethyl)-amino]-phenyl}-propanoic acid] | 50 |
| O=C(O)CCc1ccc(NCc2ccc3c(Cl)cn(Cc4ccccc4)c3c2)cc1 [Example 5, 3-{4-[(1-benzyl-3-chloro-1H-indol-6-ylmethyl)-amino]-phenyl}-propanoic acid] | 30 |
| O=C(O)CCc1ccc(NCc2ccc3c(Cl)c(Cl)n(Cc4ccccc4)c3c2)cc1 [Example 6, 3-{4-[(1-benzyl-2,3-dichloro-1H-indol-6-ylmethyl)-amino]-phenyl}-propanoic acid] | 100 |
| O=C(O)CCc1ccc(NCc2ccc3ccn(Cc4ccccc4)c3c2Cl)cc1 [Example 7, 3-{4-[(1-benzyl-7-chloro-1H-indol-6-ylmethyl)-amino]-phenyl}-propanoic acid] | 20 |
| O=C(O)CCc1ccc(NCc2ccc3ccn(-c4ccsc4)c3c2Cl)cc1 [Example 8, 3-{4-[(7-chloro-1-thiophen-3-yl-1H-indol-6-ylmethyl)-amino]-phenyl}-propanoic acid] | ≥ 500 |
| O=C(O)CCc1ccc(NCc2ccc3ccn(-c4ccc(F)cc4)c3c2Cl)cc1 [Example 9, 3-(4-{[7-chloro-1-(4-fluoro-phenyl)-1H-indol-6-ylmethyl]-amino}-phenyl)-propanoic acid] | 300 |
| O=C(O)CCc1ccc(NCc2ccc3ccn(-c4ccc(F)cc4)c3c2)cc1 [Example 10, 3-(4-{[1-(4-fluoro-phenyl)-1H-indol-6-ylmethyl]-amino}-phenyl)-propanoic acid] | 700 |
| O=C(O)CCc1ccc(NCc2ccc3ccn(CC4CCCCC4)c3c2Cl)cc1 [Example 11, 3-{4-[(7-chloro-1-cyclohexylmethyl-1H-indol-6-ylmethyl)-amino]-phenyl}-propanoic acid] | 400 |
| O=C(O)CC1COc2cc(OCc3ccc4c(Cl)cn(Cc5ccccc5)c4c3)ccc21 (centres unmarked) [Example 12, [6-(1-benzyl-3-chloro-1H-indol-6-ylmethoxy)-2,3-dihydro-benzofuran-3-yl]-acetic acid] | 160 |
| O=C(O)CCc1ccc(OCc2ccc3ccn(-c4ccsc4)c3c2)cc1 [Example 13, 3-[4-(1-thiophen-3-yl-1H-indol-6-ylmethoxy)-phenyl]-propanoic acid] | 20 |
| Cc1c(COc2ccc(CCC(=O)O)cc2)ccc2ccn(-c3ccc(F)cc3)c12 [Example 14, 3-{4-[1-(4-fluoro-phenyl)-7-methyl-1H-indol-6-ylmethoxy]-phenyl}-propanoic acid] | 30 |
| Cc1c(COc2ccc(CCC(=O)O)cc2)ccc2ccn(Cc3ccccc3)c12 [Example 15, 3-[4-(1-benzyl-7-methyl-1H-indol-6-ylmethoxy)-phenyl]-propanoic acid] | 10 |
| Cc1c(COc2ccc(CCC(=O)O)cc2)ccc2ccn(-c3ccsc3)c12 [Example 16, 3-[4-(7-methyl-1-thiophen-3-yl-1H-indol-6-ylmethoxy)-phenyl]-propanoic acid] | 20 |
| Cc1cc(F)ccc1-n1ccc2ccc(COc3ccc(CCC(=O)O)cc3)cc21 [Example 17, 3-{4-[1-(4-fluoro-2-methyl-phenyl)-1H-indol-6-ylmethoxy]-phenyl}-propanoic acid] | 7 |
| O=C(O)CCc1ccc(OCc2ccc3ccn(Cc4ccccc4)c3c2Cl)cc1 [Example 18, 3-[4-(1-benzyl-7-chloro-1H-indol-6-ylmethoxy)-phenyl]-propanoic acid] | 90 |
| O=C(O)CCc1ccc(OCc2ccc3ccn(CC4CCCCC4)c3c2)cc1 [Example 19, 3-[4-(1-cyclohexylmethyl-1H-indol-6-ylmethoxy)-phenyl]-propanoic acid] | 400 |
| Cn1cc(Cc2ccccc2)c2cc(COc3ccc(CCC(=O)O)cc3)ccc21 [Example 20, 3-[4-(3-benzyl-1-methyl-1H-indol-5-ylmethoxy)-phenyl]-propanoic acid] | 70 |
| Cc1ccccc1-c1cn(C)c2ccc(COc3ccc(CCC(=O)O)cc3)cc12 [Example 21, 3-[4-(1-methyl-3-o-tolyl-1H-indol-5-ylmethoxy)-phenyl]-propanoic acid] | ≥ 500 |
| Cc1cc(F)ccc1-n1cc(Cl)c2ccc(COc3ccc(CCC(=O)O)cc3)cc21 [Example 22, 3-{4-[3-chloro-1-(4-fluoro-2-methyl-phenyl)-1H-indol-6-ylmethoxy)-phenyl]-propanoic acid] | 40 |

Other lines, results leading:

| EC50 [nM] | SMILES |
| --- | --- |
| 4 | Cc1cc(F)ccc1-n1ccc2cc(F)c(COc3ccc(CCC(=O)O)cc3)cc21 [Example 23, 3-{4-[5-fluoro-1-(4-fluoro-2-methyl-phenyl)-1H-indol-6-ylmethoxy)-phenyl]-propanoic acid] |
| 20 | Cc1cc(F)ccc1-n1ccc2ccc(COc3ccc4c(c3)OCC4CC(=O)O)cc21 (centres unmarked) [Example 24, {6-[1-(4-fluoro-2-methyl-phenyl)-1H-indol-6-ylmethoxy]-2,3-dihydro-benzofuran-3-yl}-acetic acid] |
| 20 | CC#C[C@@H](CC(=O)O)c1ccc(OCc2ccc3ccn(Cc4ccccc4)c3c2C)cc1 [Example 25, (S)-3-[4-(1-benzyl-7-methyl-1H-indol-6-ylmethoxy)-phenyl]-hex-4-ynoic acid] |
| 20 | CC#C[C@@H](CC(=O)O)c1ccc(OCc2ccc3ccn(-c4ccc(F)cc4C)c3c2)cc1 [Example 26, (S)-3-{4-[1-(4-fluoro-2-methyl-phenyl)-1H-indol-6-ylmethoxy]-phenyl}-hex-4-ynoic acid] |
| 30 | CC#C[C@@H](CC(=O)O)c1ccc(OCc2ccc3ccn(Cc4ccc(S(C)(=O)=O)cc4)c3c2C)cc1 [Example 27, (S)-3-{4-[1-(4-methanesulfonyl-benzyl)-7-methyl-1H-indol-6-ylmethoxy]-phenyl}-hex-4-ynoic acid] |
| 10 | CC#C[C@@H](CC(=O)O)c1ccc(OCc2ccc3ccn(Cc4ccc(OC)cc4)c3c2C)cc1 [Example 28, (S)-3-{4-[1-(4-methoxy-benzyl)-7-methyl-1H-indol-6-ylmethoxy]-phenyl}-hex-4-ynoic acid] |
| 70 | CC#C[C@@H](CC(=O)O)c1ccc(OCc2ccc3ccn(Cc4ccc(C(F)(F)F)cc4)c3c2C)cc1 [Example 29, (S)-3-{4-[7-methyl-1-(4-trifluoromethyl-benzyl)-1H-indol-6-ylmethoxy]-phenyl}-hex-4-ynoic acid] |
| 40 | CC#C[C@@H](CC(=O)O)c1ccc(OCc2ccc3ccn(Cc4cccc(COC)c4)c3c2C)cc1 [Example 30, (S)-3-{4-[1-(3-methoxymethyl-benzyl)-7-methyl-1H-indol-6-ylmethoxy]-phenyl}-hex-4-ynoic acid] |
| 30 | CC#C[C@@H](CC(=O)O)c1ccc(OCc2cccc3c2ccn3Cc2ccccc2)cc1 [Example 31, (S)-3-[4-(1-benzyl-1H-indol-4-ylmethoxy)-phenyl]-hex-4-ynoic acid] |
| 40 | CC#C[C@@H](CC(=O)O)c1ccc(OCc2cccc3c2ccn3-c2ccc(F)cc2C)cc1 [Example 32, (S)-3-{4-[1-(4-fluoro-2-methyl-phenyl)-1H-indol-4-ylmethoxy]-phenyl}-hex-4-ynoic acid] |
| 20 | CC#C[C@@H](CC(=O)O)c1ccc(OCc2ccc3ccn(Cc4c(F)cccc4F)c3c2C)cc1 [Example 33, (S)-3-{4-[1-(2,6-difluoro-benzyl)-7-methyl-1H-indol-6-ylmethoxy]-phenyl}-hex-4-ynoic acid] |
| 40 | CC#C[C@@H](CC(=O)O)c1ccc(OCc2ccc3cc(CCOC)n(Cc4ccccc4)c3c2)cc1 [Example 34, (S)-3-{4-[1-benzyl-2-(2-methoxy-ethyl)-1H-indol-6-ylmethoxy]-phenyl}-hex-4-ynoic acid] |
| 10 | CC#C[C@@H](CC(=O)O)c1ccc(OCc2ccc3ccn(Cc4cccc(CS(C)(=O)=O)c4)c3c2C)cc1 [Example 35, (S)-3-{4-[1-(3-methanesulfonylmethyl-benzyl)-7-methyl-1H-indol-6-ylmethoxy]-phenyl}-hex-4-ynoic acid] |
